The text below walks through data of patent US20130040331A1, “LABEL-FREE METHODS RELATED TO hERG POTASSIUM ION [sequence]” (CORNING INCORPORATED, priority 2009, published 2013).

For series [1], the target named is T1, hERG channel (Homo sapiens, UniProt Q12809). Description: Automated patch clamp recording of hERG current using IonWorks, CHO-hERG cells. Conditions: for effect on hERG tail current: 50 μM, tail current at return to −35 mV; for effect on hERG current: final compound concentration 50 μM. The protocol:
CHO—K1 cells stably expressing hERG channel (CHO-hERG) were cultured in T175 flask till about 70% confluent. Cells were washed twice with PBS, then 2.5 ml 0.25% Trypsin/EDTA was mixed with 2.5 ml PBS and added to the T175 flask. Cells were incubated about 2 minutes with the diluted Trypsin/EDTA solution at 37° C., then were continuously incubated about 3 minutes at room temperature. 20 ml fresh medium were added to suspend the cells and transfer to a 50 ml tube. Cells were centrifuged down at 750 rpm for 5 minutes. The extra medium was removed and cells were resuspended in 6 ml External Buffer (137 mM NaCl, 4 mM KCl, 1.8 mM CaCl2, 1 mM MgCl2, 10 mM HEPES, 10 mM glucose, pH 7.4). Then cells were centrifuged again at 450 rpm for another 5 minutes. Finally cells were resuspended in 4 ml the External Buffer, cell number was counted using a hemacytometer. Cell suspension was diluted to 2.5×10^6 cells/ml with the External Buffer. 4 ml of the resuspended cells were added to the cell reservoir in IonWorks. The Internal solution used contains: 40 mM KCl, 100 mM K-Gluconate, 3.2 mM MgCl2, 2 mM CaCl2, 5 mM HEPES, pH 7.25 (adjusted with KOH). 5 mg Amphotericin B from 200 ul DMSO stock was added to 65 ml the Internal solution and mixed well to achieve electrical access to the interior of cells on the patch plate.
Compounds were prepared from 10 mM DMSO stock and diluted in the External Buffer to make 3× compound solution. […] of the 3× compound solution was transferred to a 384 well plate in Row A, B, C and D. PD11857 (Sigma-Aldrich), a reported hERG channel activator was used as activator positive control (final concentration 30 and 50 μM). hERG blocker dofetilide was used as blocker positive control (final concentration 100 nM). The final DMSO concentration in the IonWorks Quattro PatchPlate PPC plate (Cat#9000-0902, Molecular Devices) was 0.5%. Final compound concentration was 50 μM. Each compound was added to four wells of one PPC plate.
hERG currents were recorded on IonWorks Quattro (Molecular Devices). To record hERG current, the cells were clamped at −80 mV initially, then followed by a 5-s depolarization at +40 mV to activate the channels. Tail currents were measured during an ensuing return to −35 mV. Data analysis were done using IonWorks Quttro® System Software version 2.0.4.4. Data from wells with seal resistance less than 50 MΩ or hERG tail currents less than 0.1 nA were filtered out. […] Inhibitor hits were selected if hERG tail currents ratio (post/pre-compound) is less than mean-2SD of the average DMSO control.
To record hERG current, the cells were clamped at −80 mV initially, then followed by a 5-s depolarization at +40 mV to activate the channels (phase a in FIG. 10A). Tail currents were measured during an ensuing return to −35 mV for 2 seconds (phase b in FIG. 10A). Final holding potential at −70 mV (phase c in FIG. 10B).
In general terms: In patch-clamp work, channel activity is measured electrically.

Series [2] addresses T1, hERG channel. Conditions: oocytes, cited from earlier work.
In series [3] the target is T1, hERG channel. Conditions: 10 micromolar; cited from earlier work.
For another series, the system named is HEK293 cells. The series can be described thus: Label-free RWG biosensor (Epic) DMR assay, agonism mode, native HEK293 cells without hERG. Format: cell-based, human. Conditions: compound at 16 micromolar. The protocol: Epic® wavelength interrogation system (Corning Inc., Corning, N.Y.) was used for whole cell sensing. This system consists of a temperature-control unit, an optical detection unit, and an on-board liquid handling unit with robotics. The detection unit is centered on integrated fiber optics, and enables kinetic measures of cellular responses with a time interval of ˜15 sec.
Cells were plated in 384-well Epic® cell culture treated plate (Corning Cat#5040) 16-20 hours before assay (15000 cells/well for HEK293 and HEK-hERG cells, 30000 cells/well for HT29 cells). For both HEK-hERG and its parental HEK293 cells, each well was coated with 10 μl 5 μg/ml fibronectin. One hour before assay, cells were washed twice on a BioTek ELx405 Select washer with Hank's Balanced Salt Solution (HBSS) containing 20 mM Hepes. Cells were incubated in 40 μl/well HBSS at 28° C. inside the Epic system for one hour. For each assay, a 2-min baseline was initiated, followed by addition of 10 μl compound solutions (5×) and the cell responses were recorded continuously for one hour.
All studies were carried out at a controlled temperature (28° C.). At least two independent sets of experiments, each with at least three replicates, were performed. […] All dose-dependent responses were analyzed using non-linear regression method with the GraphPad Prism 5. […]

A further series deals with HEK-hERG cells. Format: cell-based, human. Conditions: microscopic imaging, data not shown. How it is done: To confirm these findings, several follow-up studies were carried out.

T1 sequence (Q12809 whole entry): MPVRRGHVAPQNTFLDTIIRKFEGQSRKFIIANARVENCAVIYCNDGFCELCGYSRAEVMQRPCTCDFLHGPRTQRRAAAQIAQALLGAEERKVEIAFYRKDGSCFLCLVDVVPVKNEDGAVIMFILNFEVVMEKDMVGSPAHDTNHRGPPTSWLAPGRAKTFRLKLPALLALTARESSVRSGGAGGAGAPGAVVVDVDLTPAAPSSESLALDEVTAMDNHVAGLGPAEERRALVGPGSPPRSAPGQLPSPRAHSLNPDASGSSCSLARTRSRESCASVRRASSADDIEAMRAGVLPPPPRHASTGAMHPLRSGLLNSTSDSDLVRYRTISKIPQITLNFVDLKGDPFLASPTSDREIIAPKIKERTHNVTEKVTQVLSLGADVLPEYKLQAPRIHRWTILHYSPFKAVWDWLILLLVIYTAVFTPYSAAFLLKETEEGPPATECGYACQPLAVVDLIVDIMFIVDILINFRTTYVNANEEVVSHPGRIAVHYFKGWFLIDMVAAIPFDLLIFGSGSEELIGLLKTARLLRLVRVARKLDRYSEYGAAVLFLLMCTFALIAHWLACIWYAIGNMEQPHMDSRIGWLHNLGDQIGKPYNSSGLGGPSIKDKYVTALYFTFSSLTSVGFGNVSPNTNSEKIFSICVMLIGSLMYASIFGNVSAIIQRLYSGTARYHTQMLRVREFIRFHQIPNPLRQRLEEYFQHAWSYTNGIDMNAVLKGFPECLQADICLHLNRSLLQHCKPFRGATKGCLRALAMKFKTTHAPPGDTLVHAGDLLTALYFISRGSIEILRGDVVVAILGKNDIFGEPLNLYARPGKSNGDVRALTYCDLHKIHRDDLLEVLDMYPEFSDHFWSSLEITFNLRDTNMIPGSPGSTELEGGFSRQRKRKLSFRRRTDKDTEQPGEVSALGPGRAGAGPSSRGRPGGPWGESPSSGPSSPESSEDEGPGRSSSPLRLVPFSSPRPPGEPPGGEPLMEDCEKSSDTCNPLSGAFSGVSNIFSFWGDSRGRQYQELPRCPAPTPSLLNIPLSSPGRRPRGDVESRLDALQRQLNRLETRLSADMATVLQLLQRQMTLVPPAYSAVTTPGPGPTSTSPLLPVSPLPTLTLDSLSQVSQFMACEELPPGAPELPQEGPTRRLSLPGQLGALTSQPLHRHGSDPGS

For the molecule `O=C(O)c1ccccc1Nc1cccc(C(F)(F)F)c1` [flufenamic acid], on hERG channel [1], the “effect on hERG tail current” value is “significantly increased” and the “effect on hERG current” value is listed as “weak hERG current activator”. Also, on hERG channel [2] (100 to 500 μM), the “amplitude of outward currents evoked by depolarizing pulses” value is on record as “enhanced the amplitude of outward currents”. Further, the “activation and deactivation rate of hERG channels” value on hERG channel [2] is “accelerated the activation rate of hERG channels and decelerated their deactivation”.
As for `CC(=O)c1c(O)c(C)c(O)c(Cc2c(O)c3c(c(C(=O)/C=C/c4ccccc4)c2O)OC(C)(C)C=C3)c1O` [mallotoxin], at hERG channel [1], the “effect on hERG tail current” value is listed as “significantly increases” and the “effect on hERG current” value was “significantly increases”. The “effect on hERG current” value at hERG channel [1] (listed as Mallotoxin) is “strong hERG current activator”. Further, on hERG channel [3], the “shift of half maximal activation voltage (V1/2) to the hyperpolarizing direction” value was “more than 25 mV”. The “DMR signal in HEK293 cells” value in the series on HEK293 cells is listed as “net-zero DMR signal”. In addition, the “cell toxicity at high doses” value with HEK-hERG cells is “caused cell apoptosis”.
